In test [1] the test system is Acinetobacter baumannii. Put plainly: Antibacterial activity against Acinetobacter baumannii ATCC 19606 assessed as reduction in bacterial growth incubated for 18 to 24 hrs by broth microdilution method. The format is functional. The note with it: time 18-24 hrs. A general note: In broth dilution the organism is exposed to a series of concentrations in liquid medium.

Another test deals with Klebsiella pneumoniae. The test can be described thus: Antibacterial activity against Klebsiella pneumoniae ATCC 700603 assessed as reduction in bacterial growth incubated for 18 to 24 hrs by broth microdilution method. It counts as functional. The note with it: time 18-24 hrs.
For test [2], the system named is Escherichia coli. Put plainly: Antibacterial activity against Escherichia coli ATCC 25922 assessed as reduction in bacterial growth incubated for 18 to 24 hrs by broth microdilution method. The format is functional. As to conditions: time 18-24 hrs.
The test system of test [3] is Pseudomonas aeruginosa. Put plainly: Antibacterial activity against Pseudomonas aeruginosa ATCC 27853 assessed as reduction in bacterial growth incubated for 18 to 24 hrs by broth microdilution method. It counts as functional. The note with it: time 18-24 hrs.
The next test deals with Enterococcus faecalis. The test can be described thus: Antibacterial activity against Enterococcus faecalis ATCC 29212 assessed as reduction in bacterial growth incubated for 18 to 24 hrs by broth microdilution method. The note with it: time 18-24 hrs. The format is functional.
Test [4] has as its system Staphylococcus epidermidis. The test can be described thus: Antibacterial activity against Staphylococcus epidermidis ATCC 12228 assessed as reduction in bacterial growth incubated for 18 to 24 hrs by broth microdilution method. It counts as functional. As to conditions: time 18-24 hrs.
Another test has as its system Bacillus subtilis. Put plainly: Antibacterial activity against Bacillus subtilis ATCC 23857 assessed as reduction in bacterial growth incubated for 18 to 24 hrs by broth microdilution method. The format is functional. As to conditions: time 18-24 hrs.
Test [5] concerns Staphylococcus aureus. Put plainly: Antibacterial activity against Staphylococcus aureus ATCC 25923 assessed as reduction in bacterial growth incubated for 18 to 24 hrs by broth microdilution method. The format is functional. As to conditions: time 18-24 hrs.
Test [6] deals with Cell membrane. The test can be described thus: Induction of cytoplasmic membrane depolarization in Escherichia coli assessed as increase in fluorescence intensity at 0.5 to 2 times MIC measured for 10 mins by DiSC3-5 dye based fluorescence assay.
In test [7] the test system is Cell membrane. The test can be described thus: Induction of cytoplasmic membrane depolarization in Staphylococcus aureus assessed as increase in fluorescence intensity at 0.5 to 4 times MIC measured for 1 mins by DiSC3-5 dye based fluorescence assay.
Test [8] deals with Staphylococcus aureus. Put plainly: Antibacterial activity against methicillin-resistant Staphylococcus aureus ATCC 33591 assessed as reduction in bacterial growth incubated for 18 to 24 hrs by broth microdilution method. As to conditions: time 18-24 hrs. It counts as functional.
The subject of test [9] is Staphylococcus aureus. The test can be described thus: Antibacterial activity against methicillin-resistant Staphylococcus aureus 75 assessed as reduction in bacterial growth incubated for 18 to 24 hrs by broth microdilution method. The format is functional. The note with it: time 18-24 hrs.
Test [10] relates to Staphylococcus aureus. The test can be described thus: Antibacterial activity against Staphylococcus aureus 113 assessed as reduction in bacterial growth incubated for 18 to 24 hrs by broth microdilution method. The note with it: time 18-24 hrs. It counts as functional.
The test system of test [11] is Staphylococcus aureus. The test can be described thus: Antibacterial activity against Staphylococcus aureus 125 assessed as reduction in bacterial growth incubated for 18 to 24 hrs by broth microdilution method. As to conditions: time 18-24 hrs. The format is functional.
The subject of test [12] is Staphylococcus aureus. Put plainly: Antibacterial activity against Staphylococcus aureus 794 assessed as reduction in bacterial growth incubated for 18 to 24 hrs by broth microdilution method. It counts as functional. As to conditions: time 18-24 hrs.
Test [13] has as its system Acinetobacter baumannii. Put plainly: Antibacterial activity against Acinetobacter baumannii 5444 assessed as reduction in bacterial growth incubated for 18 to 24 hrs by broth microdilution method. It counts as functional. The note with it: time 18-24 hrs.
Test [14] concerns Acinetobacter baumannii. The test can be described thus: Antibacterial activity against Acinetobacter baumannii 92359 assessed as reduction in bacterial growth incubated for 18 to 24 hrs by broth microdilution method. It counts as functional. The note with it: time 18-24 hrs.
The test system of test [15] is Escherichia coli. The test can be described thus: Antibacterial activity against Escherichia coli 850 assessed as reduction in bacterial growth incubated for 18 to 24 hrs by broth microdilution method. The format is functional. As to conditions: time 18-24 hrs.
Test [16] relates to Escherichia coli. The test can be described thus: Antibacterial activity against Escherichia coli 780 assessed as reduction in bacterial growth incubated for 18 to 24 hrs by broth microdilution method. The note with it: time 18-24 hrs. The format is functional.
The test system of test [17] is Pseudomonas aeruginosa. Put plainly: Antibacterial activity against Pseudomonas aeruginosa 124 assessed as reduction in bacterial growth incubated for 18 to 24 hrs by broth microdilution method. The format is functional. The note with it: time 18-24 hrs.
Test [18] deals with Pseudomonas aeruginosa. Put plainly: Antibacterial activity against Pseudomonas aeruginosa 6434N assessed as reduction in bacterial growth incubated for 18 to 24 hrs by broth microdilution method. The format is functional. As to conditions: time 18-24 hrs.

≈ marks a conversion by molar mass, not a printed value. Calls of active or inactive are those of the source. Peptide text beside a SMILES is read from it. * marks the point of attachment. Myristoyl = CCCCCCCCCCCCCC(=O)*; Lauroyl = CCCCCCCCCCCC(=O)*; Octanoyl = CCCCCCCC(=O)*

Turning to `CCCCCCCCCCCC(=O)NCCCC[C@H](NC(=O)CCCCCCCCCCC)C(=O)N[C@@H](CCCCN)C(=O)N[C@@H](CCCCN)C(=O)N[C@@H](Cc1c[nH]c2ccccc12)C(=O)N[C@@H](Cc1c[nH]c2ccccc12)C(N)=O` (Lauroyl-K(Lauroyl)KKWW-NH2), the MIC (in the test on Acinetobacter baumannii [1]; with Klebsiella pneumoniae; in the test with Escherichia coli [2]; with Pseudomonas aeruginosa [3]; in the test on Enterococcus faecalis; in test [4]) was 128 µM (≈ 146 µg/mL) in each case. In addition, the MIC in the test on Bacillus subtilis and in the test on Staphylococcus aureus [5] was 128 µM (≈ 146 µg/mL) each time.
Regarding `CCCCCCCCCCCCCC(=O)NCCCC[C@H](NC(=O)CCCCCCCCCCCCC)C(=O)N[C@@H](CCCCN)C(=O)N[C@@H](CCCCN)C(=O)N[C@@H](Cc1c[nH]c2ccccc12)C(=O)N[C@@H](Cc1c[nH]c2ccccc12)C(N)=O` (Myristoyl-K(Myristoyl)KKWW-NH2), the MIC (in the test with Acinetobacter baumannii [1]; with Klebsiella pneumoniae; in the test with Escherichia coli [2]; in the test on Pseudomonas aeruginosa [3]; in the test on Enterococcus faecalis; in test [4]) was 128 µM (≈ 153 µg/mL) in each case. For the same compound, the MIC in the test with Bacillus subtilis and in the test with Staphylococcus aureus [5] was 128 µM (≈ 153 µg/mL) each time.
In the case of `CCCCCCCCCCCCCC(=O)N[C@@H](CCCCN)C(=O)N[C@@H](CCCCN)C(=O)N[C@@H](Cc1c[nH]c2ccccc12)C(=O)N[C@@H](Cc1c[nH]c2ccccc12)C(N)=O` (Myristoyl-KKWW-NH2), the MIC with Acinetobacter baumannii [1] is 32 µM (≈ 27.4 µg/mL); with Klebsiella pneumoniae, 32 µM (≈ 27.4 µg/mL); in the test with Escherichia coli [2] it was 32 µM (≈ 27.4 µg/mL); in the test on Pseudomonas aeruginosa [3], 16 µM (≈ 13.7 µg/mL); in the test with Enterococcus faecalis it was 8 µM (≈ 6.85 µg/mL); in [4], 4 µM (≈ 3.42 µg/mL). The minimum inhibitory concentration (MIC) with Bacillus subtilis is 2 µM (≈ 1.71 µg/mL); in the test on Staphylococcus aureus [5] it was 4 µM (≈ 3.42 µg/mL). The Activity result in the test with Cell membrane [6] is on record as “Active; Compound Showed Similar Effect As Quality Control Polymyxin B”. For the same compound, in the test with Cell membrane [7], the result was Active.
As to `CCCCCCCC(=O)N[C@@H](CCCCN)C(=O)N[C@@H](CCCCN)C(=O)N[C@@H](Cc1c[nH]c2ccccc12)C(=O)N[C@@H](Cc1c[nH]c2ccccc12)C(N)=O` (Octanoyl-KKWW-NH2), the minimal inhibitory concentration (MIC) in the test on Acinetobacter baumannii [1] is 128 µM (≈ 98.8 µg/mL); with Klebsiella pneumoniae, 128 µM (≈ 98.8 µg/mL); in the test on Escherichia coli [2] it was 64 µM (≈ 49.4 µg/mL); in the test with Pseudomonas aeruginosa [3] it was 16 µM (≈ 12.4 µg/mL); in the test with Enterococcus faecalis it was 128 µM (≈ 98.8 µg/mL); in test [4], 32 µM (≈ 24.7 µg/mL). The MIC with Bacillus subtilis worked out at 4 µM (≈ 3.09 µg/mL); in the test on Staphylococcus aureus [5] it was 32 µM (≈ 24.7 µg/mL).
As to `CC(=O)OCC1=C(C(=O)O)N2C(=O)[C@@H](NC(=O)Cc3cccs3)[C@H]2SC1` [CEPHALOTHIN], the MIC in the test with Acinetobacter baumannii [1] is 32 µM (≈ 12.7 µg/mL); in the test with Klebsiella pneumoniae it was 16 µM (≈ 6.34 µg/mL); with Escherichia coli [2], 1 µM (≈ 0.396 µg/mL); in the test on Pseudomonas aeruginosa [3], 16 µM (≈ 6.34 µg/mL); in the test with Staphylococcus aureus [8] it was 128 µM (≈ 50.7 µg/mL); with Staphylococcus aureus [9], 128 µM (≈ 50.7 µg/mL). Further, the MIC with Staphylococcus aureus [10] was 8 µM (≈ 3.17 µg/mL); in the test with Staphylococcus aureus [11], 1 µM (≈ 0.396 µg/mL); in the test on Staphylococcus aureus [12], 128 µM (≈ 50.7 µg/mL); in the test on Enterococcus faecalis, 4 µM (≈ 1.59 µg/mL); in [4], 1 µM (≈ 0.396 µg/mL); in the test on Bacillus subtilis it was 1 µM (≈ 0.396 µg/mL). Also, the MIC in the test with Staphylococcus aureus [5] is 1 µM (≈ 0.396 µg/mL); with Acinetobacter baumannii [13], 128 µM (≈ 50.7 µg/mL); with Acinetobacter baumannii [14], 128 µM (≈ 50.7 µg/mL); with Escherichia coli [15], 8 µM (≈ 3.17 µg/mL); with Escherichia coli [16], 1 µM (≈ 0.396 µg/mL); in the test on Pseudomonas aeruginosa [17], 128 µM (≈ 50.7 µg/mL). The MIC with Pseudomonas aeruginosa [18] is 16 µM (≈ 6.34 µg/mL).
Take `COc1cccc(OC)c1C(=O)N[C@@H]1C(=O)N2[C@@H]1SC(C)(C)[C@@H]2C(=O)O` [METHICILLIN]: the MIC with Acinetobacter baumannii [1], with Klebsiella pneumoniae, with Escherichia coli [2], with Pseudomonas aeruginosa [3], in the test with Staphylococcus aureus [8] and with Staphylococcus aureus [9] was 128 µM (≈ 48.7 µg/mL) in each case. Moreover, the MIC in the test with Staphylococcus aureus [10] worked out at 8 µM (≈ 3.04 µg/mL); with Staphylococcus aureus [11], 2 µM (≈ 0.761 µg/mL); in the test on Staphylococcus aureus [12], 128 µM (≈ 48.7 µg/mL); with Enterococcus faecalis, 128 µM (≈ 48.7 µg/mL); in test [4] it was 4 µM (≈ 1.52 µg/mL); with Bacillus subtilis it was 2 µM (≈ 0.761 µg/mL). The MIC is 1 µM (≈ 0.38 µg/mL) in the test on Staphylococcus aureus [5]; 128 µM (≈ 48.7 µg/mL) in the test with Acinetobacter baumannii [13]; 128 µM (≈ 48.7 µg/mL) in the test with Acinetobacter baumannii [14]; 128 µM (≈ 48.7 µg/mL) in the test with Escherichia coli [15]; 128 µM (≈ 48.7 µg/mL) in the test with Escherichia coli [16]; 128 µM (≈ 48.7 µg/mL) in the test with Pseudomonas aeruginosa [17]. Moreover, the MIC in the test on Pseudomonas aeruginosa [18] worked out at 128 µM (≈ 48.7 µg/mL).
For `CN[C@@H]1[C@H](O[C@H]2[C@H](O[C@H]3[C@H](O)[C@@H](O)[C@H](N=C(N)N)[C@@H](O)[C@@H]3N=C(N)N)O[C@@H](C)[C@]2(O)C=O)O[C@@H](CO)[C@H](O)[C@H]1O` [STREPTOMYCIN], the MIC was found to be 64 µM (≈ 37.2 µg/mL) in the test on Acinetobacter baumannii [1]; 1 µM (≈ 0.582 µg/mL) with Klebsiella pneumoniae; 4 µM (≈ 2.33 µg/mL) in the test with Escherichia coli [2]; 2 µM (≈ 1.16 µg/mL) in the test with Pseudomonas aeruginosa [3]; 64 µM (≈ 37.2 µg/mL) in the test on Staphylococcus aureus [8]; 64 µM (≈ 37.2 µg/mL) in the test on Staphylococcus aureus [9]. Moreover, the MIC with Staphylococcus aureus [10] is 128 µM (≈ 74.4 µg/mL); in the test with Staphylococcus aureus [11], 128 µM (≈ 74.4 µg/mL); in the test with Staphylococcus aureus [12] it was 128 µM (≈ 74.4 µg/mL); in the test on Enterococcus faecalis, 16 µM (≈ 9.31 µg/mL); in [4], 1 µM (≈ 0.582 µg/mL); with Bacillus subtilis, 1 µM (≈ 0.582 µg/mL). Besides, the MIC was 1 µM (≈ 0.582 µg/mL) with Staphylococcus aureus [5]; 128 µM (≈ 74.4 µg/mL) in the test on Acinetobacter baumannii [13]; 128 µM (≈ 74.4 µg/mL) with Acinetobacter baumannii [14]; 32 µM (≈ 18.6 µg/mL) with Escherichia coli [15]; 128 µM (≈ 74.4 µg/mL) in the test on Escherichia coli [16]; 4 µM (≈ 2.33 µg/mL) in the test with Pseudomonas aeruginosa [17]. In addition, the MIC in the test on Pseudomonas aeruginosa [18] is 2 µM (≈ 1.16 µg/mL).

Usually MIC stands for the smallest concentration in the dilution series that meets the test's criterion for growth inhibition.

The record behind these values is ChEMBL document CHEMBL6114980, “Single or double lipid-modified ultra-short antimicrobial peptides for treating infections caused by resistant bacteria” (Eur J Med Chem, 2025).
